Where two headings read alike, the source gives them in different places.
What was measured:
Yeast proteasome = molecular target: T1, Yeast proteasome (Saccharomyces cerevisiae, UniProt P30656); experiment: Proteasome inhibition assay (fluorescence intensity, Suc-Leu-Leu-Val-Tyr-AMC); type: biochemical; details: 9 nM yeast proteasome, 5 µM substrate, preincubated 90 min, 22 °C
T1 construct: TUM Groll group (academic supplier)
Experimental: The assay was carried out at room temperature (22 °C) using Corning 4514 black low volume 384-well plates. All measurements were performed in duplicate and the final DMSO concentration was 3.3%. The assay buffer contained 100 mM Tris pH 7.5 and 1 mM MgCl2. (Table 5).
For the positive control, 9.5 µL protein dilution (final concentration 9 nM) were mixed with 0.5 µL of compound dilution ranging from 30–0.015 μM (assay end conc. 1000–0.5 nM). For the selected hits, 9.5 µL protein dilution (final concentration 9 nM) were mixed with 0.5 µL of compound dilution ranging from 1–0.0005 mg/mL (assay end conc. 33–0.016 μg/mL) and preincubated for 90 min. Then, 5 µL substrate mix was added (final concentration 5 µM) and incubated for 60 min. The assay plates were measured in Fluorescence mode on a Tecan M1000 plate reader (ex 380 nm, em 460 nm). The IC50 was calculated using XLfit.
For assay set-up and validation, the tool compound ONX-0914 was utilized. For this tool compound, a dose-dependent decrease in the Fluorescence signal was observed similar to previous results.

FynB wt = molecular target: T2, FynB wt (Homo sapiens, UniProt P06241); experiment: FynB kinase inhibition assay (ADP-Glo Kinase Assay); type: biochemical
T2 construct: Crelux construct CTX4, PC09815-1
Experimental: The assay buffer contained 20 mM Tris pH 8.0, 170 mM NaCl, and 10 mM MgCl2.
For the selected hits, 9.5 µL protein dilution (final concentration 200 nM) were mixed with 0.5 µL of compound dilution ranging from 1–0.0005 mg/mL (assay end conc. 33–0.016 μg/mL) and preincubated for 90 min.
Then, 5 µL substrate/ATP mix was added (final concentration substrate 10 µM and ATP 100 µM) and the assay was incubated for another 2 h. Afterwards, 5 µL of the 15 µL assay reaction were transferred to new wells and 5 µL ADP Glo Reagent was added to terminate the kinase reaction and deplete the remaining ATP. After 40 min, 10 µL of Kinase Detection Reagent was added to convert ADP to ATP and allow the newly synthesized ATP to be measured using a luciferase/luciferin reaction. After another 40 min, the assay plates were measured in Luminescence mode on a Tecan M1000 plate reader. The light generated, i.e., luminescent signal, is proportional to the ADP concentration produced and is correlated with kinase activity. The IC50 was calculated using XLfit.

CDK7 = molecular target: T3, CDK7 (Homo sapiens, UniProt P50613); experiment: CDK7 inhibition assay (ADP-Glo Kinase Assay); type: biochemical; details: for IC50: 300 nM CDK7, 30 µM CDKtide, 125 µM ATP, preincubated 120 min, 22 °C
T3 construct: Crelux construct CZY-3, PC09891
Experimental: The assay was carried out at room temperature (22 °C) using Corning white low volume 384-well plates. […]. The assay buffer contained 20 mM Hepes pH 7.0, 150 mM NaCl, and 10 mM MgCl2. (Table 4).
For the positive control, 9.5 µL protein dilution (final concentration 300 nM) were mixed with 0.5 µL of compound dilution ranging from 990–0.006 μM (assay end conc. 33–0.0002 μM). For the selected hits, 9.5 µL protein dilution (final concentration 300 nM) were mixed with 0.5 µL of compound dilution ranging from 1–0.0005 mg/mL (assay end conc. 33–0.016 μg/mL) and preincubated for 120 min.
Then, 5 µL substrate/ATP mix was added (final concentration substrate 30 µM and ATP 125 µM) and the assay was incubated for another 2 h. Afterwards, 5 µL of the 15 µL assay reaction were transferred to new wells and 5 μL ADP Glo Reagent was added to terminate the kinase reaction and deplete the remaining ATP. After 40 min, 10 µL of Kinase Detection Reagent was added to convert ADP to ATP and allow the newly synthesized ATP to be measured using a luciferase/luciferin reaction. After another 40 min, the assay plates were measured in Luminescence mode on a Tecan M1000 plate reader.
The light generated, i.e., luminescent signal, is proportional to the ADP concentration produced and is correlated with kinase activity. The IC50 was calculated using XLfit.

Na+/K+ ATPase = tested on: Na+/K+ ATPase; set-up: method as in doi:10.1016/S0040-4039(00)96493-1; details: cited from earlier work
[1] = tested on: reverse transcriptase (RT); set-up: method as in doi:10.1016/S0040-4039(00)96493-1; details: cited from earlier work
[2] = 200 nM FynB wt, 10 µM Fyn substrate, 100 µM ATP, preincubated 90 min, 22 °C, read-out: IC50 FynB Kinase Inhibition

T3 sequence (P50613 whole entry, species assumed): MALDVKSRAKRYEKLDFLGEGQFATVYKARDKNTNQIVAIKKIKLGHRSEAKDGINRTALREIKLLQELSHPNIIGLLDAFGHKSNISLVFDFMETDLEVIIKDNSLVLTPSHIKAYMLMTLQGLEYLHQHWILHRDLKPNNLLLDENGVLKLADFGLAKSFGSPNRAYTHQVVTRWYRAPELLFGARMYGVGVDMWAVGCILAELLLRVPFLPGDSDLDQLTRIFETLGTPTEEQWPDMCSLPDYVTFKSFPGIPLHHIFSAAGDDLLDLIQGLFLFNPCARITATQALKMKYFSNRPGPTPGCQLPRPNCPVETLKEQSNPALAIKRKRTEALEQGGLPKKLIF
T2 sequence (P06241 whole entry): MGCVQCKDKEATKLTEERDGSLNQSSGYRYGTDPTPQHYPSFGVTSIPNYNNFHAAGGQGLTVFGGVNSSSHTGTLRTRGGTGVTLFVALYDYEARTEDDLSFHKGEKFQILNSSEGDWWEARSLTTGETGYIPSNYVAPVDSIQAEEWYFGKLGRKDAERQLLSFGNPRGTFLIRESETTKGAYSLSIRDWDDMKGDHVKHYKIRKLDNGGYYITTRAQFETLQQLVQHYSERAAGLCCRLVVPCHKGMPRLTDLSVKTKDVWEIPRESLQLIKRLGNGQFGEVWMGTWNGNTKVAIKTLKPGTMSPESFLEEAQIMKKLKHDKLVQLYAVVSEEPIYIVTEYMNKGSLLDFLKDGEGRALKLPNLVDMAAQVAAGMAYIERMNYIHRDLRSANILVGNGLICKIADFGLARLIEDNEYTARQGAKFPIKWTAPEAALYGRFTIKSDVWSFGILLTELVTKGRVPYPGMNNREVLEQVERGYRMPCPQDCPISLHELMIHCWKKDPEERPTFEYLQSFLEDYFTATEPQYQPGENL

IC50 (Yeast proteasome) [µM]	IC50 (FynB wt; [2]) [µM]	SMILES	CDK7 inhibition (in words) (CDK7)	IC50 (CDK7) [µM]	Fyn kinase inhibition (in words) (FynB wt)	IC50 (FynB wt) [µM]	Na+/K+ ATPase inhibitory activity (in words) (Na+/K+ ATPase)	reverse transcriptase (RT) inhibitory activity (in words) [1]
> 41	> 41	C#CC(O)/C=C/C(O)CCCC(O)CC#CC(O)C#CC(O)CCCC(O)/C=C/CCCCCC(=O)CCCCCCCCCCCCCC(O)C(O)C#CC(=O)O (stereo not shown) [Osirisyne A (4), osirisyne A]						
0.26	18.4	C#CC(O)/C=C/C(O)CCCC(O)CC#CC(O)C#CCCCCC(O)/C=C/CCCCCC(=O)CCCCCCCCCCCCCC(O)C(O)C#CC(=O)O (stereo not shown) [Osirisyne B (5), osirisyne B]	inhibited	9.13	inhibited			
> 41	> 41	C#CC(O)/C=C/C(O)CCCC(O)CC#CC(O)C#CC(O)CCCC(O)/C=C/CCCC(O)/C=C/CCCCCCCCCCCCCC(O)C(O)C#CC(=O)O (stereo not shown) [Osirisyne I (3), osirisyne I]						
> 40.2	> 40.2	C#CC(O)/C=C/C(O)CCCC(O)CC#CC(O)C#CC(O)CCCC(O)/C=C/CCCCCC(=O)CCCCCCCCCCCCC(O)C(O)C(O)C#CC(=O)O (stereo not shown) [Osirisyne G (1), osirisyne G]						
		C#CC(O)/C=C/C(O)CCCC(O)CC#CC(O)C#CCCCCC(O)/C=C/CCCCCC(=O)CCCCCCCCCCCCC(O)C(O)C(O)C#CC(=O)O (stereo not shown) [Osirisyne H (2), osirisyne H]				> 41		

SMILES	IC50 (Yeast proteasome) [µM]	IC50 (FynB wt; [2]) [µM]	CDK7 inhibition (in words) (CDK7)	IC50 (CDK7) [µM]	Fyn kinase inhibition (in words) (FynB wt)	IC50 (FynB wt) [µM]	Na+/K+ ATPase inhibitory activity (in words) (Na+/K+ ATPase)	reverse transcriptase (RT) inhibitory activity (in words) [1]
C#CC(O)/C=C/C(O)CCCC(O)CC#CC(O)C#CCCCCC(O)/C=C/CCCC(O)/C=C/CCCCCCCCCCCCCC(O)C(O)C#CC(=O)O (stereo not shown) [Osirisyne E (6), osirisyne E]	> 41.8	> 41.8	inhibited	> 41.8	inhibited		inhibitory activities	inhibitory activities

— article PMC7401255, “Osirisynes G-I, New Long-Chain Highly Oxygenated Polyacetylenes from the Mayotte Marine Sponge Haliclona sp” (Marine Drugs, 2020)
